# Laboratory results published in US20050227296A1, “Method for indentifying integrin antagonists” (The General Hospital Corporation, a Massachusetts …, priority 1988, published 2005).
# Key:
# [1] = tested on: biotinylated NIF binding to human neutrophils; test: Inhibition of biotinylated NIF binding to neutrophils; conditions: dose dependent
# Procedure: 100 μg of rNIF were labeled with sulfo-NHS-Biotin as described above. rNIF binding to resting or stimulated human neutrophils (pretreated with 10^−6 M f-met-leu-phe, for 15 minutes at 37° C., then washed) was measured. Increasing amounts of biotinylated rNIF in the absence or presence of 100-fold molar excess of unlabeled rNIF were incubated on ice for one hour with 1×10^6 neutrophils in VBSG^++ in a total volume of […]. Cells were then washed and incubated with phycoerythrin-coupled avidin (Sigma Chemical Co.) under similar conditions, washed again, fixed in 1% paraformaldehyde in PBS, and analyzed using FACScan (Becton Dickinson Co., Mountain View, Calif.). Mean channel fluorescence for each sample was then expressed as a function of the amount of biotinylated rNIF used. Background binding of phycoerythrin-streptavidin alone to neutrophils was subtracted (2.8 fluorescent units). Specific binding was obtained by […], and the values plotted according to Scatchard (Ann. N.Y. Acad. Sci. 51:660, 1949). To determine the effect of unlabeled fluid-phase-r11bA or GST on rNIF binding to neutrophils, each was preincubated at varying concentrations with biotinylated rNIF (20 ng/ml, final concentration) for 15 minutes on ice before addition of the mixture to neutrophils. The effect of mAbs on biotinylated NIF binding to neutrophils was assessed by preincubating the neutrophils with 100 μg/ml of each mAb at 4° C. for 15 minutes before addition of biotinylated NIF (20 ng/ml). The incubation then continued for one hour, followed by processing of cells for FACS analysis as described below.
# [2] = target: T1, EAiC3b (erythrocytes coated with iC3b) (Homo sapiens, UniProt P01024); test: Erythrocyte binding assay, EAiC3b on immobilized proteins or peptides; conditions: 37° C., divalent cations
# T1 construct: EAiC3b (erythrocytes coated with iC3b) were generated by treating EAC3b with purified human factors H and I; tissue Sigma Chemical Co. (C5-deficient human serum); host or cells: human serum C3 deposited on IgM-coated erythrocytes
# T1 sequence (P01024 749-1303 limits assumed): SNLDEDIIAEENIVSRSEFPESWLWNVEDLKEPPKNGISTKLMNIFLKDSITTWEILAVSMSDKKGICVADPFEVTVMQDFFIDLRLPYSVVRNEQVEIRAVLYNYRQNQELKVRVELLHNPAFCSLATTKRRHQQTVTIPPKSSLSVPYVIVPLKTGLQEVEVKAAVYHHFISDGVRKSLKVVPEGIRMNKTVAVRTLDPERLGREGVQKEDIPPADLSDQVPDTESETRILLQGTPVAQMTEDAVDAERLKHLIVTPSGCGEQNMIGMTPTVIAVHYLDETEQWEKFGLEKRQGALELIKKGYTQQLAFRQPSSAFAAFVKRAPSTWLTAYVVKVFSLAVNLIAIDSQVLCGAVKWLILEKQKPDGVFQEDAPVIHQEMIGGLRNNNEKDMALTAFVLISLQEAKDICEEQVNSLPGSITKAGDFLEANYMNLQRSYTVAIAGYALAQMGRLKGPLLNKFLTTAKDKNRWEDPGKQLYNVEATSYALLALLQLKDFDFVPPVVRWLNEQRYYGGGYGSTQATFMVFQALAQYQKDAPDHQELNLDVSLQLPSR
# T1 sequence (P01024 23-667 partner limits assumed): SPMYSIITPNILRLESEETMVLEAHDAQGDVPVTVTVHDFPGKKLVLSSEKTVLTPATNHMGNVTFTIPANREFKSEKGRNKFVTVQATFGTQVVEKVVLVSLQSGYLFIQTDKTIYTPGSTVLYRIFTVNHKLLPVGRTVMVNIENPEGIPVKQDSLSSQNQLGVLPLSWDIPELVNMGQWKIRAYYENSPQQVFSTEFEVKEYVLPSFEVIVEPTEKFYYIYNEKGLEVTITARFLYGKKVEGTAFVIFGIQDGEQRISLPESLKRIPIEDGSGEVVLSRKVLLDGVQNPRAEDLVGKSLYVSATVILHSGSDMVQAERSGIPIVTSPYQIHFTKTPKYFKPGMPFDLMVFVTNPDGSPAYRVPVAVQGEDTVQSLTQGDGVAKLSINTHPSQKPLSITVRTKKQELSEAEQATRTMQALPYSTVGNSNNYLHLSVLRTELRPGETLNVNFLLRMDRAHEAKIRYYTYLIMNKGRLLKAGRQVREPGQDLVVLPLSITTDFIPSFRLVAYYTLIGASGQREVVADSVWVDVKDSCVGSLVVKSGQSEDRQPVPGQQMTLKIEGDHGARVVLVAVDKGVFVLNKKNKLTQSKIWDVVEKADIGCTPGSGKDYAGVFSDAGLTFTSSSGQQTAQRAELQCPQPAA
# T1 sequence (P01024 1321-1663 partner limits assumed): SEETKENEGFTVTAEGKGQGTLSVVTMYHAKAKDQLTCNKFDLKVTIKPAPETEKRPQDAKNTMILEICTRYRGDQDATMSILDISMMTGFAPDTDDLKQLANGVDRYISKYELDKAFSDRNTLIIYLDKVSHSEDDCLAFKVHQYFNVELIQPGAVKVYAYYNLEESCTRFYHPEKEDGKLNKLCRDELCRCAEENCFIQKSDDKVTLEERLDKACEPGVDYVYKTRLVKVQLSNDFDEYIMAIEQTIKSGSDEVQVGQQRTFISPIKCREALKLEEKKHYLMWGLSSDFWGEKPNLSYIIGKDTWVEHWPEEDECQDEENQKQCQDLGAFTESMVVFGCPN
# Procedure: Erythrocytes (E) coated with rabbit anti-E IgM (EA) or C3b (EAC3b) were prepared as described by Dana et al. (J. Immunol. 73:153, 1984). EAiC3b (erythrocytes coated with iC3b) were generated by treating EAC3b with purified human factors H and I, or alternatively prepared from EA using C5-deficient human serum (Sigma Chemical Co., St. Louis, Mo.). EAiC3b cells were washed and stored in isotonic veronal-buffered saline (VBS^2+), pH 7.4, containing 0.15 mM calcium-1 mM magnesium (MgCl2+CaCl2) and 1 mg/ml Soybean Trypsin Inhibitor (STI; Worthington Biochemical Co., Freehold, N.J.) at 1.5×10^8 cells/ml. EA, EAC3b or EAiC3b were labeled with 5-(and-6)-carboxy fluorescein (Molecular Probes, Eugene, Oreg.) as described by Michishita et al. (Cell 72:857, 1993).
# Immobilization of recombinant proteins and peptides: Purified recombinant A-domain was added to Immulon-2 96-well microtiter plates (Dynatech) overnight. Wells were then washed once with phosphate-buffered-saline, pH 7.4 without metals, and blocked with 1% BSA at room temperature (RT) for one hour, followed by two washings with buffer A (composed of 60% GVBS:VBS^2+ mixed in a 1:3 ratio; Arnaout et al., in Complement Receptor Type 3 at 602-615, Academic Press, FL) containing 1 mM MnCl2 or MgCl2+CaCl2. All the peptides were stocked at 1 mg/ml in water and similarly adsorbed to Immulon-2 96-well plates. Binding of the anti-CD11b mabs to the coated rA-domain was measured by ELISA and read using a plate reader (Molecular Dynamics).
# Erythrocyte binding assays: Fluoresceinated EAiC3b, EAC3b or EA were resuspended to 1.5×10^8/ml in buffer A, and added […] to wells containing immobilized proteins or peptides in a total volume of […]. The plates were then briefly centrifuged to settle the erythrocytes, and allowed to incubate at 37° C. for 15 minutes in a humidified incubator with 5% CO2. For the inhibition studies, E were preincubated with each recombinant protein or pure peptide in the presence of 2% BSA for 5 minutes at RT and added to wells coated with immobilized protein or peptide without washing, unless otherwise indicated. At the end of the binding reactions, wells were washed, examined briefly by light microscopy then solubilized with 1% SDS-0.2 N NaOH. Fluorescence was quantified (excitatory wavelength, 490 nm, emission wavelength, 510 nm) using a SLM 8000 fluorometer (SLM Instruments, Urbana, Ill.). In experiments where the effects of individual divalent cations were measured, Ca^2+ and Mg^2+ were replaced with metal-free buffers or with buffers containing each cation at […], unless otherwise indicated. The effect of temperature was evaluated in the presence of 1 mM MnCl2 at 37° C. and at 4° C.
substance,measurement,setting,value
"GST: glutathione-S-transferase, fusion partner of r11bA, used as control [reference compound]",effect of fluid-phase protein on biotinylated rNIF binding to human neutrophils,[1],not
same,direct binding of EAiC3b to immobilized protein or peptide,[2],did not bind
